{
  "source": "a melting point compilation (Tetko et al.; mined from patent text by program, amines drawn as free bases though some values may be those of a salt)",
  "data": [
    {"units": {"melting point": "°C"}, "values": [
      {"smiles": "O=C(N[C@@H](Cc1ccc(OCc2ccccc2)cc1)C(=O)O)c1cn2cc(/C=C/c3ccccc3)ccc2n1", "melting point": "262 to 263"},
      {"smiles": "COc1ccc(F)cc1C(C)(C)CC(O)(Cc1nc2cc(-c3ccccc3)ccc2o1)C(F)(F)F", "note": "(stereo not drawn)", "melting point": "103 to 104"},
      {"smiles": "CN1C(=O)CC[C@]2(C)c3ccc(Sc4ccc([N+](=O)[O-])cn4)cc3CC[C@@H]12", "melting point": "188 to 191"},
      {"smiles": "CC1(C)CC(O)CC(C)(C)N1CC(O)CO", "note": "(stereo not drawn)", "melting point": "97 to 99"},
      {"smiles": "CC(C)Cn1cnc2c(Br)c(NC3=NCCN3)ccc21", "melting point": "226 to 227"},
      {"smiles": "O=C(O)CCC(O)c1ccc(-c2ccc(Cl)cc2)o1", "note": "(stereo not drawn)", "melting point": "100 to 101"},
      {"smiles": "COC(=O)c1ccccc1-c1cnc(-c2cccc(C(F)(F)F)c2)o1", "melting point": "84.5 to 86"},
      {"smiles": "O=C(Nc1cc(-n2cccn2)nc(-c2ccco2)n1)OCc1cccnc1", "melting point": "254 to 256"},
      {"smiles": "CC(C)=CCS(=O)(=O)c1ccc(C)cc1", "melting point": "71 to 72"},
      {"smiles": "Nc1c(-c2ccc(Cl)cc2Cl)nnn1Cc1ccc(O)cc1", "melting point": "172 to 174"},
      {"smiles": "COC(=O)c1cc2cc(Cl)c(Cl)cc2nc1Cl", "melting point": "178 to 180"},
      {"smiles": "COc1ccc(C(=O)Nc2ccc3oc4c(c3c2)CCCC4)cc1", "melting point": "197 to 198"},
      {"smiles": "Cc1oc2cc(O)cc(O)c2c(=O)c1-c1ccc(F)cc1", "melting point": "222 to 223"},
      {"smiles": "O=C(O)COc1ccc(SCc2cc(-c3ccc(C(F)(F)F)cc3)on2)c2c1CCCC2", "melting point": "167 to 170"},
      {"smiles": "O=C1N(CC2CCCO2)c2ccccc2C12COc1cc3c(cc12)C(=NO)CO3", "note": "(stereo not drawn)", "melting point": "82 to 100"},
      {"smiles": "COC(=O)Nc1cc(=O)[nH]c(N)n1", "melting point": "186 to 188"},
      {"smiles": "Clc1ccc(-c2[nH]nc3c2Cc2ccccc2-3)cc1", "melting point": "266 to 268"},
      {"smiles": "CCCCN(CCCC)C(=O)c1c(C)n(CCc2ccccc2)c2cc(C(=O)CC)c(O)c(CN3CCCCC3)c12", "melting point": "111 to 112"},
      {"smiles": "CNc1nc(-c2cccc(NC(=O)c3ccc(N(C)C)nc3)c2)c2cc(OC)c(OC)cc2n1", "melting point": "149 to 151"},
      {"smiles": "CO[C@@H](C(=O)N[C@H]1CC[C@@H](OC(=O)Cc2ccc(Cl)c(Cl)c2)CNC1=O)[C@H](O)[C@@H](O)[C@H](O)/C=C/C(C)(C)C", "melting point": "132 to 136"},
      {"smiles": "Cc1nc2cc(NC(=O)NC34CC5CC(CC(C5)C3)C4)ccc2s1", "melting point": "209 to 214"},
      {"smiles": "CN(C)CCSc1ncccc1C(O)c1ccccc1", "note": "(stereo not drawn)", "melting point": "88 to 89"},
      {"smiles": "Cc1c(NC(=O)CC(C)(C)C)c2c(c3c1C(c1ccc(C(C)C)cc1)CO3)CCCC2", "note": "(stereo not drawn)", "melting point": "183 to 184"},
      {"smiles": "Cn1nc(Br)c(Br)c1Br", "melting point": "85 to 86"},
      {"smiles": "COC(=O)C1CC2C3CCc4cc(O)ccc4C3CCC2(C)C1=O", "note": "(stereo not drawn)", "melting point": "215 to 217"},
      {"smiles": "O=c1oc(-c2ccc(OCC3CCCCC3)cc2)cc(O)c1SCCc1ccccc1", "melting point": "130 to 132"},
      {"smiles": "OC(Cn1cncn1)(Cn1cnc(C=Cc2ccc(C(F)(F)F)cc2)n1)c1ccc(Cl)cn1", "note": "(stereo not drawn)", "melting point": "159 to 161"},
      {"smiles": "CC(C)c1cn2nc(Cl)ccc2n1", "melting point": "106 to 108"},
      {"smiles": "O=C1CN(N=Cc2ncc(-c3ccc([N+](=O)[O-])cc3)o2)C(=O)N1", "melting point": "314 to 316"},
      {"smiles": "COC(=O)c1cc2cc(OC)c(OCCCl)cc2nc1N", "melting point": "145 to 157"},
      {"smiles": "Cc1nc2c(c3c1[nH]c1ccccc13)C(=O)CC(C(C)C)C2", "note": "(stereo not drawn)", "melting point": "248 to 249"},
      {"smiles": "Clc1cc2c(cc1Cl)CCC(N1CCCC1)=C2", "melting point": "141 to 142"},
      {"smiles": "COc1ccc2[nH]cc(/C(C#N)=C/c3ccc(Cl)nc3)c2c1", "melting point": 184},
      {"smiles": "CCOCCn1c(NC2CCN(C(=O)c3cc(C(F)(F)F)cc(C(F)(F)F)c3)C(Cc3ccccc3)C2)nc2ccccc21", "note": "(stereo not drawn)", "melting point": 178},
      {"smiles": "C#CCOc1ccc(OCC2OC2(C)C)cc1", "note": "(stereo not drawn)", "melting point": "72 to 73"},
      {"smiles": "C(=CCN(CC1CCCCC1)CC1CCCCC1)CN(CC1CCCCC1)CC1CCCCC1", "melting point": "72 to 73"},
      {"smiles": "COc1cc(/C=C/c2cc(/C=C/c3ccc4cc[nH]c4c3)n[nH]2)cc(OCc2ccccn2)c1", "melting point": "88 to 93"},
      {"smiles": "O=C1CC(C(=O)Nc2ccccc2O)CN1", "note": "(stereo not drawn)", "melting point": "133 to 135"},
      {"smiles": "COc1c(C)cc2c(c1C)C[C@@H]1c3cc(C(C)C)ccc3N[C@H]21", "note": "(relative stereo)", "melting point": 106},
      {"smiles": "Cc1cc(SC2=C(O)CC(CCc3cccnc3)(C(C)C)OC2=O)c(C(C)(C)C)cc1CO", "note": "(stereo not drawn)", "melting point": "122 to 125"},
      {"smiles": "COCSCCNC(=C[N+](=O)[O-])NCC(O)c1ccccc1", "note": "(stereo not drawn)", "melting point": "107 to 110"},
      {"smiles": "Cn1c(C(F)(F)F)nn(-c2cc(F)c(C#N)cc2F)c1=O", "melting point": 74},
      {"smiles": "COc1nscc1C(N)=O", "melting point": "165 to 168"},
      {"smiles": "O=CN1CCN(c2ncc3c(=O)c(C(=O)ON4C(=O)CCC4=O)c[nH]c3n2)CC1", "melting point": "> 300"},
      {"smiles": "COc1ccc2c(c1)C(C(=O)N(Cc1ccc(Br)cc1)c1ccc(C(C)C)cc1)CCC2", "note": "(stereo not drawn)", "melting point": 85},
      {"smiles": "O=Cc1c(Cl)cc(Cl)cc1-c1ccc(F)cc1", "melting point": "73 to 74"},
      {"smiles": "NCC(CC(=O)O)C1CCCC1", "note": "(stereo not drawn)", "melting point": "178 to 180"},
      {"smiles": "Cc1ccc(C)n1-c1ccc2c(c1)ncn2-c1cccc(-n2ccnc2)c1", "melting point": "141 to 142"},
      {"smiles": "CCOC(=O)C(C)c1ccc(NC(C)=O)cc1", "note": "(stereo not drawn)", "melting point": "94.5 to 95.5"},
      {"smiles": "O=S1(=O)N=CN(C2CCCCCC2)c2cc(Cl)ccc21", "melting point": "209 to 211"},
      {"smiles": "CC(C)(CC(O)(Cn1ccc(=O)c2sccc21)C(F)(F)F)c1cc(S(C)(=O)=O)cc2c1OCC2", "note": "(stereo not drawn)", "melting point": "163 to 165"},
      {"smiles": "Cc1ccc(-c2c(O)nn(CCO[Si](C)(C)C(C)(C)C)c2N)cc1", "melting point": "194 to 195"},
      {"smiles": "CCc1oc2ccccc2c1C(=O)NCc1ccc2c(Br)c(OC(Cc3ccccc3)C(=O)O)ccc2c1", "note": "(stereo not drawn)", "melting point": "162 to 165"},
      {"smiles": "CC(=O)N1CCN=C1Nc1cc(C)nn1-c1ccccc1", "melting point": "153 to 162"},
      {"smiles": "CCCCCCCC(O)C(C)(C)C(=O)O", "note": "(stereo not drawn)", "melting point": "39 to 41"},
      {"smiles": "CCCc1nn(-c2ccc(C(F)(F)F)cn2)cc1CCCCOc1cccc(CC(=O)O)c1", "melting point": "96 to 97"},
      {"smiles": "CC(C)(C)COc1c(NCCCBr)c(=O)c1=O", "melting point": "111 to 113"},
      {"smiles": "Cc1ccsc1C1CC(=O)CC(=O)C1", "melting point": "166 to 168"},
      {"smiles": "CCn1cc(C(=O)O)c(=O)c2cc(F)c(N3C[C@@H](N)[C@@H](C)C3)c(F)c21", "note": "(relative stereo)", "melting point": "232 to 234"},
      {"smiles": "O=C(O)Cc1cccc2c(=O)cc(-c3cc(F)ccc3F)oc12", "melting point": "222 to 224"},
      {"smiles": "Cc1ccc(S(=O)(=O)N(C)c2ccccc(N)c2=O)cc1", "melting point": "221 to 222"},
      {"smiles": "COc1ccc(C(=O)NCCC=CCCCNC(=O)c2ccc(OC)cc2)cc1", "melting point": "141 to 143"},
      {"smiles": "CCCOc1ccccc1-c1nc2nc(NCC(F)(F)F)ncc2c(=O)[nH]1", "melting point": "214 to 216"},
      {"smiles": "COc1cc(C(=O)O)ccc1Cc1c(Cl)n(C)c2ccc(CC3CCN(C)C3=O)cc12", "note": "(stereo not drawn)", "melting point": "204 to 205"},
      {"smiles": "CC(OCCc1ccc(-c2ccc(Cl)cc2)cc1)C(=O)O", "note": "(stereo not drawn)", "melting point": "90 to 92"},
      {"smiles": "Cc1cc(=O)n(-c2c(Cl)cc(C(F)(F)F)cc2Cl)[nH]1", "melting point": "174 to 175"},
      {"smiles": "Cc1cc(NC(=O)C2=C(O)c3ccc4ccccc4c3S(=O)(=O)N2C)sn1", "melting point": 268},
      {"smiles": "Nc1nc2c(ncn2/C=C2/CC2(CO)CO)c(=O)[nH]1", "melting point": "> 300"},
      {"smiles": "C#CCCCOc1cc(/C=C/C(=O)Nc2ccccc2C(=O)O)ccc1OC", "melting point": "154 to 156"},
      {"smiles": "O=C(O)c1c[nH]c(Cl)c1", "melting point": "175 to 178"},
      {"smiles": "CC(C)c1cccc(C(C)C)c1NC(=O)CN1CCN(CCOc2nc3ccccc3[nH]2)CC1", "melting point": "205 to 206"},
      {"smiles": "CC(N=c1[nH]c(-c2ccccc2)c(-c2ccnc(Nc3ccccc3)n2)s1)N(C)C", "note": "(stereo not drawn)", "melting point": "196 to 197"},
      {"smiles": "CCOC(=O)CNC(=O)c1n[nH]cc1NC(=O)c1cccc(C)n1", "melting point": "228 to 229"}
    ]}
  ]
}
